Laboratory results: US9655912B2, “Reduction of gastrointestinal tract colonisation by campylobacter” (priority 2012, dated 2017)

Tests used:
[1] = system: C. jejuni NCTC11168 strain; assay: Growth of C. jejuni in culture medium supplemented with Fe(QA)3; format: cell-based, Campylobacter jejuni; conditions: 34 and 340 μM in culture medium
Source text: To further clarify the growth-effect properties of Fe(QA)3, we investigated the effect of adding Fe(QA)3 to the culture medium.

[2] = system: C. jejuni NCTC11168-O; assay: Chicken caecal colonisation after oral challenge, Ferric Quinate as additive to water; format: in vivo; conditions: 0.34 mM in water, 6-weeks old birds, 3 and 7 days post-challenge
Method: These inhibitory properties against C. jejuni adherence to BgAgs were analyzed in vivo. Ferric Quinate was used as an additive to water (0.034-0.34 mM) and as an inhibitor of C. jejuni NCTC11168 strain adherence to, and thus colonization, in the chicken intestinal tract. 6-weeks old birds (n=10 per group) were challenged with 3×10^3-5 cfu wild-type strain NCTC11168-O by oral gavage. Caecal colonisation levels were determined in birds from each group at 3 and 7 days post-challenge.

[3] = system: C. jejuni; assay: ELISA: inhibition of C. jejuni adherence to BgAgs (Core-I, Core-II, H-I, H-II, Leb, Ley, Lex) by Ferric Quinate; format: binding, Campylobacter jejuni; conditions: for Inhibition of C. jejuni binding to BgAgs: 34 μM Fe(QA)3, pre-incubation and post-treatment, ELISA
Method: The inhibitory potential of Ferric Quinate Fe(QA)3 on adherence of C. jejuni was analyzed by ELISA using BgAgs (Core-I, Core-II, H-I, H-II, Leb, Ley and Lex). C. jejuni was pre-incubated with 34 μM Fe(QA)3 and specific inhibition was also analyzed by post-treatment of C. jejuni with Fe(QA)3 which bound to BgAgs at the time.

[4] = system: C. jejuni strain NCTC11168; assay: Inhibition ELISA of binding of strain NCTC11168 to H-II glycoconjugate; design: species or system Campylobacter jejuni; conditions: p<0.001, FIG. 2A
Method: Purified MOMP from NCTC11168 (MOMP(+)), and pre-incubation of NCTC11168 bacterial cells with H-II glycoconjugate (H-II). […] B) ELISA plate was coated with a selection of BgAgs. Specific binding was calculated by subtracting the BSA (negative control) values from the BgAg absorbance at 405 nm. Strain NCTC11168 and Cj-266 (high binder strain, S3—Table 1), and corresponding ΔflaA mutants, have been examined for binding to Le^b, H-II, H-I, Le^x and Le^a. t-test confirmed the reduction in binding seen with mutants are significant (Le^b; p=2.5E-05, H-II; p=0.012, H-I; p=0.001, Le^x; p=0.029 and Le^a; p=0.000) in strain NCTC11168. However, Cj-266ΔflaA mutation had no effect on binding, which indicates the binding capacity was compensated by MOMP protein. Each group of bars from left to right: NCTC11168, 11168-ΔflaA, Cj-266, Cj-266ΔflaA. C) A double mutant (DM) of ΔflaA and single substitution of glycosylation site in MOMP protein (Thr^268 was substituted with Gly) was constructed in both strain NCTC11168 and Cj-266, and the binding to Le^b H-I and H-II was examined. […] Each group of bars from left to right: Leb, H-II, H-1.
Deletion mutant of ΔflaA in strains NCTC11168 and Cj-266 (a clinical isolate, S3—Table) were constructed.

Molecule | Effect on growth of C. jejuni NCTC11168 [1] | Reduction of adhesion of C. jejuni to the intestinal mucosa (caecal colonisation) [2] | Inhibition of C. jejuni binding to BgAgs [3] | Inhibition of microbial adherence, bacterial culture (MH) containing Fe(QA)3 ([3]; bacteria cultured on MH containing Fe(QA)3) | Resistance concerning the binding abilities after sequential passages ([3]; sequential passages (P) of bacteria to new plate containing Fe(QA)3) | Bacterial binding to H-II antigen [4] | Bacterial binding to H-II antigen ([4]; listed as purified MOMP)
Ferric quinate [Fe(QA)3] | did not affect the growth | 2-3 Log | 90% | reproducible inhibition | didn't cause any resistance |  | 
O=C(O)[C@]1(O)C[C@@H](O)[C@@H](O)[C@H](O)C1 [Quinic Acid, D-(−)-quinic acid, reference compound] |  |  | no inhibition |  |  |  | 
MOMP(+): major outer membrane protein purified under native conditions from C. jejuni strain NCTC11168 (protein) TPLEEAIKDVDVSGVLRYRYDTGNFDKNFVNNSNLNNSKQDHKYRAQVNFSAAIADNFKAFVQFDYNAADGGYGANGIKNDQKGLFVRQLYLTYTNEDVATSVIAGKQQLNLIWTDNAIDGLVGTGVKVVNNSIDGLTLAAFAVDSFMAAEQGADLLEHSNISTTSNQAPFKVDSVGNLYGAAAVGSYDLAGGQFNPQLWLAYWDQVAFFYAVDAAYSTTIFDGINWTLEGAYLGNSLDSELDDKTHANGNLFALKGSIEVNGWDASLGGLYYGDKEKASTVVIEDQGNLGSLLAGEEIFYTTGSRLNGDTGRNIFGYVTGGYTFNETVRVGADFVYGGTKTEAANHLGGGKKLEAVARVDYKYSPKLNFSAFYSYVNLDQGVNTNESADHSTVRLQALYKF |  |  |  |  |  | significantly reduced | significantly inhibited
